# Measured values published in US6423541B1, “Process for in vitro selection of high methol producing genotypes” (Council of Scientific&Industrial Reaearch, priority 2000, dated 2002).
# Key:
# Experiment in all cases: Survival of in vitro raised shoots on menthol containing MS basal medium
# Format in all cases: cell-based
# [1] = tested on: regenerated shoots of Mentha arvensis variety Himalaya
# Excerpt: (§1) The plant varieties analysed were Himalaya, Shivalik, Gomti, MAS-1, Kosi, Kalka of Mentha arvensis L. (2n=96). The suckers of these plant varieties were obtained from CIMAP's national gene bank for medicinal and aromatic plants for planting. The explant materials were collected from the field grown plants and surface sterilized by washing sequentially with 2% detergent, distilled water containing a few drops of Savlon (Johnson and Johnson, India), 0.1% acidified mercuric chloride and autoclaved distilled water before inoculation. About 1 cm long internodal pieces were inoculated in the MS medium (Murasighe and Skoog, 1962) containing vitamins, 100 mg l^−1 myo-inositol 3% wv^−1 sucrose, 1.5% wv^−1 agar (Difco), 0.5 .μg ml^−1 of an auxin, (NAA, 1-napthalene acetic acid) and 5 μg ml^−1 of a cytokinin (BAP, benzyl aminopurine) (Shasany et al, 1998). The cultures were grown at 25±2° C. and 400 to 600 lux light intensity with 16 h photoperiod. The regenerated shoots were separated 12 weeks after the explant inoculation for rooting and/or testing menthol tolerance.
# (§2) The regenerated shoots (3-4 cm long, containing the apical bud and 2-3 nodes) separated after 12 weeks, were inoculated into MS basal medium with or without menthol (0 to 100 μg ml^−1). Concentration of menthol in each treatment was stepped up by 10 μg in a sequential manner. On each kind of these media, 5 independently regenerated shoots were inoculated per flask; 4 flasks were inoculated per replication and each treatment was replicated 5 times, making the number of flasks to 20 and number of explants to 100 for each concentration of menthol. The experiment was conducted in the completely randomized design (CRD) fashion. Cultures were incubated and maintained at 25±2° C. and 400-600 lux light intensity with 16-hour photoperiod. The wilting response and lethality in explants was recorded every 24 hours over a period of one week.
# [2] = tested on: regenerated shoots of Mentha arvensis variety Kalka
# Excerpt: as §1, §2
# [3] = tested on: regenerated shoots of Mentha arvensis variety Kosi
# Excerpt: as §1, §2
# [4] = tested on: regenerated shoots of Mentha arvensis variety MAS-1
# Excerpt: as §1, §2
# [5] = tested on: regenerated shoots of Mentha arvensis variety Shivalik
# Excerpt: as §1, §2
# [6] = 100-ppm menthol, twenty-four hours after incubation
# [7] = menthol 10 μg ml^−1, 20 shoots tested per replication
# [8] = menthol 20 μg ml^−1, 20 shoots tested per replication
# [9] = menthol 30 μg ml^−1, 20 shoots tested per replication
# [10] = menthol 40 μg ml^−1, 20 shoots tested per replication
# [11] = menthol 50 μg ml^−1, 20 shoots tested per replication
# [12] = menthol 60 μg ml^−1, 20 shoots tested per replication
# [13] = menthol 70 μg ml^−1, 20 shoots tested per replication
# [14] = menthol 80 μg ml^−1, 20 shoots tested per replication
# [15] = menthol 90 μg ml^−1, 20 shoots tested per replication
# [16] = menthol 100 μg ml^−1, 20 shoots tested per replication
smiles,measurement,setting,value
CC1CCC(C(C)C)C(O)C1 (stereo not shown) [menthol],lethality,[1]; [6],100%
same,Survival after 7 days Number,[1]; menthol 10 μg ml^−1,20.0 ± 0.00
same,Survival after 24 hours Number,[1]; [7],20.0 ± 0.00
same,Survival after 7 days Number,[1]; menthol 20 μg ml^−1,20.0 ± 0.00
same,Survival after 24 hours Number,[1]; [8],20.0 ± 0.00
same,Survival after 7 days Number,[1]; menthol 30 μg ml^−1,20.0 ± 0.00
same,Survival after 24 hours Number,[1]; [9],20.0 ± 0.00
same,Survival after 7 days Number,[1]; menthol 40 μg ml^−1,17.6 ± 0.66
same,Survival after 24 hours Number,[1]; [10],20.0 ± 0.00
same,Survival after 7 days Number,[1]; menthol 50 μg ml^−1,9.0 ± 0.41
same,Survival after 24 hours Number,[1]; [11],17.0 ± 0.91
same,Survival after 7 days Number,[1]; menthol 60 μg ml^−1,2.0 ± 0.41
same,Survival after 24 hours Number,[1]; [12],14.0 ± 0.91
same,Survival after 7 days Number,[1]; menthol 70 μg ml^−1,0.2 ± 0.26
same,Survival after 24 hours Number,[1]; [13],9.0 ± 0.91
same,Survival after 7 days Number,[1]; menthol 80 μg ml^−1,0.0 ± 0.00
same,Survival after 24 hours Number,[1]; [14],4.0 ± 0.58
same,Survival after 7 days Number,[1]; menthol 90 μg ml^−1,0.0 ± 0.00
same,Survival after 24 hours Number,[1]; [15],2.0 ± 0.40
same,Survival after 7 days Number,[1]; menthol 100 μg ml^−1,0.0 ± 0.00
same,Survival after 24 hours Number,[1]; [16],0.0 ± 0.00
same,lethality,[2]; [6],98%
same,Survival after 7 days Number,[2]; menthol 10 μg ml^−1,20.0 ± 0.00
same,Survival after 24 hours Number,[2]; [7],20.0 ± 0.00
same,Survival after 7 days Number,[2]; menthol 20 μg ml^−1,20.0 ± 0.00
same,Survival after 24 hours Number,[2]; [8],20.0 ± 0.00
same,Survival after 7 days Number,[2]; menthol 30 μg ml^−1,20.0 ± 0.00
same,Survival after 24 hours Number,[2]; [9],20.0 ± 0.00
same,Survival after 7 days Number,[2]; menthol 40 μg ml^−1,17.6 ± 0.66
same,Survival after 24 hours Number,[2]; [10],20.0 ± 0.00
same,Survival after 7 days Number,[2]; menthol 50 μg ml^−1,13.8 ± 0.86
same,Survival after 24 hours Number,[2]; [11],19.4 ± 0.52
same,Survival after 7 days Number,[2]; menthol 60 μg ml^−1,10.0 ± 0.91
same,Survival after 24 hours Number,[2]; [12],17.0 ± 0.41
same,Survival after 7 days Number,[2]; menthol 70 μg ml^−1,4.0 ± 0.81
same,Survival after 24 hours Number,[2]; [13],11.0 ± 0.58
same,Survival after 7 days Number,[2]; menthol 80 μg ml^−1,0.0 ± 0.00
same,Survival after 24 hours Number,[2]; [14],6.0 ± 0.82
same,Survival after 7 days Number,[2]; menthol 90 μg ml^−1,0.0 ± 0.00
same,Survival after 24 hours Number,[2]; [15],3.0 ± 0.36
same,Survival after 7 days Number,[2]; menthol 100 μg ml^−1,0.0 ± 0.00
same,Survival after 24 hours Number,[2]; [16],0.4 ± 0.26
same,lethality,[3]; [6],99%
same,Survival after 7 days Number,[3]; menthol 10 μg ml^−1,20.0 ± 0.00
same,Survival after 24 hours Number,[3]; [7],20.0 ± 0.00
same,Survival after 7 days Number,[3]; menthol 20 μg ml^−1,20.0 ± 0.00
same,Survival after 24 hours Number,[3]; [8],20.0 ± 0.00
same,Survival after 7 days Number,[3]; menthol 30 μg ml^−1,20.0 ± 0.00
same,Survival after 24 hours Number,[3]; [9],20.0 ± 0.00
same,Survival after 7 days Number,[3]; menthol 40 μg ml^−1,18.0 ± 0.41
same,Survival after 24 hours Number,[3]; [10],20.0 ± 0.00
same,Survival after 7 days Number,[3]; menthol 50 μg ml^−1,10.0 ± 0.52
same,Survival after 24 hours Number,[3]; [11],17.0 ± 0.41
same,Survival after 7 days Number,[3]; menthol 60 μg ml^−1,8.0 ± 0.82
same,Survival after 24 hours Number,[3]; [12],15.0 ± 0.91
same,Survival after 7 days Number,[3]; menthol 70 μg ml^−1,1.0 ± 0.40
same,Survival after 24 hours Number,[3]; [13],7.0 ± 0.82
same,Survival after 7 days Number,[3]; menthol 80 μg ml^−1,0.0 ± 0.00
same,Survival after 24 hours Number,[3]; [14],3.0 ± 0.41
same,Survival after 7 days Number,[3]; menthol 90 μg ml^−1,0.0 ± 0.00
same,Survival after 24 hours Number,[3]; [15],2.0 ± 0.32
same,Survival after 7 days Number,[3]; menthol 100 μg ml^−1,0.0 ± 0.00
same,Survival after 24 hours Number,[3]; [16],0.2 ± 0.32
same,survival,"[4]; 80 ppm menthol, after 7 days of incubation",2%
same,lethality,[4]; [6],98%
same,Survival after 7 days Number,[4]; menthol 10 μg ml^−1,20.0 ± 0.00
same,Survival after 24 hours Number,[4]; [7],20.0 ± 0.00
same,Survival after 7 days Number,[4]; menthol 20 μg ml^−1,20.0 ± 0.00
same,Survival after 24 hours Number,[4]; [8],20.0 ± 0.00
same,Survival after 7 days Number,[4]; menthol 30 μg ml^−1,20.0 ± 0.00
same,Survival after 24 hours Number,[4]; [9],20.0 ± 0.00
same,Survival after 7 days Number,[4]; menthol 40 μg ml^−1,18.0 ± 0.57
same,Survival after 24 hours Number,[4]; [10],20.0 ± 0.00
same,Survival after 7 days Number,[4]; menthol 50 μg ml^−1,13.4 ± 0.66
same,Survival after 24 hours Number,[4]; [11],19.0 ± 0.57
same,Survival after 7 days Number,[4]; menthol 60 μg ml^−1,10.0 ± 0.91
same,Survival after 24 hours Number,[4]; [12],16.0 ± 0.57
same,Survival after 7 days Number,[4]; menthol 70 μg ml^−1,3.0 ± 0.58
same,Survival after 24 hours Number,[4]; [13],10.0 ± 0.82
same,Survival after 7 days Number,[4]; menthol 80 μg ml^−1,0.4 ± 0.32
same,Survival after 24 hours Number,[4]; [14],5.0 ± 0.41
same,Survival after 7 days Number,[4]; menthol 90 μg ml^−1,0.0 ± 0.00
same,Survival after 24 hours Number,[4]; [15],3.0 ± 0.32
same,Survival after 7 days Number,[4]; menthol 100 μg ml^−1,0.0 ± 0.00
same,Survival after 24 hours Number,[4]; [16],0.4 ± 0.32
same,lethality,[5]; [6],98%
same,Survival after 7 days Number,[5]; menthol 10 μg ml^−1,20.0 ± 0.00
same,Survival after 24 hours Number,[5]; [7],20.0 ± 0.00
same,Survival after 7 days Number,[5]; menthol 20 μg ml^−1,20.0 ± 0.00
same,Survival after 24 hours Number,[5]; [8],20.0 ± 0.00
same,Survival after 7 days Number,[5]; menthol 30 μg ml^−1,20.0 ± 0.00
same,Survival after 24 hours Number,[5]; [9],20.0 ± 0.00
same,Survival after 7 days Number,[5]; menthol 40 μg ml^−1,18.0 ± 0.41
same,Survival after 24 hours Number,[5]; [10],20.0 ± 0.00
same,Survival after 7 days Number,[5]; menthol 50 μg ml^−1,11.0 ± 0.41
same,Survival after 24 hours Number,[5]; [11],18.0 ± 0.91
same,Survival after 7 days Number,[5]; menthol 60 μg ml^−1,5.0 ± 0.71
same,Survival after 24 hours Number,[5]; [12],15.0 ± 0.11
same,Survival after 7 days Number,[5]; menthol 70 μg ml^−1,2.0 ± 0.32
same,Survival after 24 hours Number,[5]; [13],8.0 ± 0.91
same,Survival after 7 days Number,[5]; menthol 80 μg ml^−1,0.0 ± 0.00
same,Survival after 24 hours Number,[5]; [14],4.0 ± 0.41
same,Survival after 7 days Number,[5]; menthol 90 μg ml^−1,0.0 ± 0.00
same,Survival after 24 hours Number,[5]; [15],2.0 ± 0.41
same,Survival after 7 days Number,[5]; menthol 100 μg ml^−1,0.0 ± 0.00
same,Survival after 24 hours Number,[5]; [16],0.4 ± 0.32
